In the oligonucleotide strings, read from the 5' end, every base follows the letter of its sugar. An asterisk marks phosphorothioate; unmarked linkages are phosphodiester. Other units and linkages are bracketed, terminal groups are in braces. A string of capitals states the bases alone. d = 2'-deoxy (DNA); m = 2'-O-methyl
Biological target: cGAS (Homo sapiens, UniProt Q8N884)
Assay: ISD70-driven IP-10 (and IFN-β) production in THP-1 cells, ELISA
Format: cell-based
Design: endogenous in cells; host or cells: THP-1 (undifferentiated)
Conditions: for cGAS-100 nM: averaged IP-10 levels relative to ISD70 / inhibition of ISD70-driven IP-10 production (in words): THP-1; for cGAS-100 nM: averaged IP-10 levels relative to ISD70: 100 nM ASO overnight, then ISD70 2.5 μg/ml 7-8 h, percentage of ISD70 only; for cGAS 100 nM: MOE-modified ASO at 100 nM, averaged IP-10 levels relative to ISD70 condition; for inhibition of ISD70-driven IP-10 production (in words): 2′OMe or PS oligos, 100-250 nM, pre-treatment as in figure legends, ISD70 2.5 μg/ml

Sequence of cGAS (Q8N884 whole entry): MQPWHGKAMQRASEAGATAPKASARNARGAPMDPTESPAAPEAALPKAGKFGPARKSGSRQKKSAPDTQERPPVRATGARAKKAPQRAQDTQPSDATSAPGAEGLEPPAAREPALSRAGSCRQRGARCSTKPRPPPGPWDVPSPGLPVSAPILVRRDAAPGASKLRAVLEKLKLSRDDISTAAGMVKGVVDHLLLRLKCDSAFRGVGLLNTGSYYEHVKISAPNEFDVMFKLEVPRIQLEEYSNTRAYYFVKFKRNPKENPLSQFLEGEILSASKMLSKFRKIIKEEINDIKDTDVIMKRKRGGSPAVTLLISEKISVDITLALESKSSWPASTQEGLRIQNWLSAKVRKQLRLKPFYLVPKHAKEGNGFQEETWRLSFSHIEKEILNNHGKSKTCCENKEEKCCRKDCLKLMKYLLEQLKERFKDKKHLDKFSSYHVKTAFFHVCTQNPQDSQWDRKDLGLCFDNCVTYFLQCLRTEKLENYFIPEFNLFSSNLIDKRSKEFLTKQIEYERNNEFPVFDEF

Row | Substance | cGAS-100 nM: averaged IP-10 levels relative to ISD70 [%] | cGAS 100 nM | inhibition of ISD70-driven IP-10 production (in words)
1 | mA*mC*mC*mC*mU*T*C*T*C*T*C*T*G*G*T*mC*mC*mC*mA*mU (mA*mC*mC*mC*mU*dT*dC*dT*dC*dT*dC*dT*dG*dG*dT*mC*mC*mC*mA*mU; antisense) [[LINC-PINT]115] | 89.81 |  | 
2 | mA*mG*mC*mC*mG*A*A*C*A*G*A*A*G*G*A*mG*mC*mG*mU*mC (AGCCGAACAGAAGGAGCGUC; sugars from the 5' end m5 d10 m5, all phosphorothioate, methylation of C not given here) [[LINC-PINT]587 KL] | 39.92 |  | 
3 | mA*mG*mA*mU*mU*A*T*C*T*T*C*T*T*T*T*mA*mA*mU*mU*mU (AGAUUATCTTCTTTTAAUUU; sugars from the 5' end m5 d10 m5, all phosphorothioate, methylation of C not given here) [[CDKN2B-AS1]2130] | 55.80 |  | 
4 | mG*mA*mA*mA*mA*G*A*T*T*A*T*C*T*T*C*mU*mU*mU*mU*mA (GAAAAGATTATCTTCUUUUA; sugars from the 5' end m5 d10 m5, all phosphorothioate, methylation of C not given here) [[CDKN2B-AS1]2134] | 51.49 |  | 
5 | GCCCATCCATGAGGTCCTGG (antisense; 2'-MOE modified, pattern not given here) [CTNN2B-2545 MOE] |  | 0.592 | 
6 | mA*mA*mA*mA*mG*A*T*T*A*T*C*T*T*C*T*mU*mU*mU*mA*mA (AAAAGATTATCTTCTUUUAA; sugars from the 5' end m5 d10 m5, all phosphorothioate, methylation of C not given here) [[CDKN2B-AS1]2133] | 57.68 |  | 
7 | AGTCGTAGTTGCTTCCTAAC (antisense; 2'-MOE modified, pattern not given here) [MB21D1-1181 MOE] |  | 0.261 | 
8 | mG*mU*mC*mA*mA*A*C*C*T*A*G*A*A*A*G*mA*mA*mG*mC*mA (mG*mU*mC*mA*mA*dA*dC*dC*dT*dA*dG*dA*dA*dA*dG*mA*mA*mG*mC*mA; antisense) [[CDKN2B-AS1]1528] | 68.94 |  | 
9 | mC*mC*mA*mU*mG*T*C*C*C*A*G*G*C*C*T*mC*mC*mA*mG*mU (CCAUGTCCCAGGCCTCCAGU; sugars from the 5' end m5 d10 m5, all phosphorothioate, methylation of C not given here) [[CDKN2B-AS1]2227] | 36.34 |  | 
10 | mU*mG*mA*mC*mA*T*T*T*C*G*T*G*G*C*T*mC*mC*mU*mA*mC (mU*mG*mA*mC*mA*dT*dT*dT*dC*dG*dT*dG*dG*dC*dT*mC*mC*mU*mA*mC; antisense) [[LINC-PINT]523 KL] | 39.34 |  | 
11 | mU*mU*mA*mA*mA*T*A*A*T*C*T*A*G*T*T*mU*mG*mA*mA*mG (UUAAATAATCTAGTTUGAAG; sugars from the 5' end m5 d10 m5, all phosphorothioate, methylation of C not given here) [[CDKN2B-AS1]132] | 52.20 |  | 
12 | mG*mA*mU*mG*mG*T*T*C*C*A*G*T*C*C*C*mU*mC*mU*mU*mC (GAUGGTTCCAGTCCCUCUUC; antisense; sugars from the 5' end m5 d10 m5, all phosphorothioate, methylation of C not given here) [[LINC-PINT]1497.1] | 26.05 |  | significant effect
13 | mU*mG*mG*mC*mG*T*A*G*T*T*T*C*T*C*T*mU*mC*mC*mU*mC (mU*mG*mG*mC*mG*dT*dA*dG*dT*dT*dT*dC*dT*dC*dT*mU*mC*mC*mU*mC; antisense) [[LINC-PINT]937.1] | 70.97 |  | 
14 | mG*mU*mC*mU*mC*C*T*C*C*A*C*A*C*C*C*mU*mU*mC*mU*mC (mG*mU*mC*mU*mC*dC*dT*dC*dC*dA*dC*dA*dC*dC*dC*mU*mU*mC*mU*mC; antisense) [[LINC-PINT]126] | 114.36 |  | 
15 | mU*mC*mU*mC*mU*G*G*T*C*C*C*A*T*C*C*mC*mU*mU*mC*mU (UCUCUGGTCCCATCCCUUCU; antisense; sugars from the 5' end m5 d10 m5, all phosphorothioate, methylation of C not given here) [[LINC-PINT]108] | 104.65 |  | 
16 | TGGGCTGGAATCCGAGTTAT (antisense; 2'-MOE modified, pattern not given here) [EGFR-4705 MOE] |  | 0.433 | 
17 | mC*mA*mA*mG*mC*C*C*C*A*G*C*G*T*T*C*mC*mU*mC*mC*mG (mC*mA*mA*mG*mC*dC*dC*dC*dA*dG*dC*dG*dT*dT*dC*mC*mU*mC*mC*mG; antisense) [[LINC-PINT]83.1] | 77.10 |  | 
18 | mC*mA*mC*mU*mG*T*A*T*T*T*T*A*T*T*A*mC*mA*mG*mA*mA (mC*mA*mC*mU*mG*dT*dA*dT*dT*dT*dT*dA*dT*dT*dA*mC*mA*mG*mA*mA; antisense) [[LINC-PINT]2990] | 69.47 |  | 

Row | Substance | cGAS-100 nM: averaged IP-10 levels relative to ISD70 [%] | cGAS 100 nM | inhibition of ISD70-driven IP-10 production (in words)
19 | mC*mA*mG*mG*mC*C*T*C*C*A*G*T*G*T*C*mU*mU*mC*mU*mC (mC*mA*mG*mG*mC*dC*dT*dC*dC*dA*dG*dT*dG*dT*dC*mU*mU*mC*mU*mC; antisense) [[CDKN2B-AS1]2219] | 99.38 |  | 
20 | mU*mG*mU*mU*mU*C*C*C*C*G*G*A*G*A*G*mC*mA*mA*mU*mG (UGUUUCCCCGGAGAGCAAUG; antisense; sugars from the 5' end m5 d10 m5, all phosphorothioate, methylation of C not given here) [[LINC-PINT]501 KL] | 57.81 |  | 
21 | mU*mU*mG*mU*mG*A*A*A*A*G*A*T*T*A*T*mC*mU*mU*mC*mU (mU*mU*mG*mU*mG*dA*dA*dA*dA*dG*dA*dT*dT*dA*dT*mC*mU*mU*mC*mU) [[CDKN2B-AS1]2138] | 69.36 |  | 
22 | mA*mG*mA*mA*mA*G*A*A*G*C*A*A*A*G*A*mU*mU*mC*mA*mA (AGAAAGAAGCAAAGAUUCAA; sugars from the 5' end m5 d10 m5, all phosphorothioate, methylation of C not given here) [[CDKN2B-AS1]1519] | 49.09 |  | 
23 | mA*mA*mU*mA*mU*C*T*G*C*T*G*C*C*C*A*mC*mC*mU*mU*mC (mA*mA*mU*mA*mU*dC*dT*dG*dC*dT*dG*dC*dC*dC*dA*mC*mC*mU*mU*mC; antisense) [[CDKN2B-AS1]832] | 83.17 |  | 
24 | mG*mG*mA*mU*mU*A*A*A*A*C*A*G*A*T*T*mA*mA*mU*mA*mC (GGAUUAAAACAGATTAAUAC; sugars from the 5' end m5 d10 m5, all phosphorothioate, methylation of C not given here) [[CDKN2B-AS1]1774] | 50.11 |  | 
25 | mC*mC*mC*mU*mA*A*T*G*C*T*T*T*C*C*T*mC*mU*mC*mC*mA (mC*mC*mC*mU*mA*dA*dT*dG*dC*dT*dT*dT*dC*dC*dT*mC*mU*mC*mC*mA; antisense) [[LINC-PINT1877 KL] | 89.09 |  | 
26 | GCTGACAAAGATTCACTGGT (antisense; 2'-MOE modified, pattern not given here) [HPRT-1353 MOE] |  | 0.335 | 
27 | mU*mA*mA*mA*mA*T*A*A*G*G*G*G*A*A*T*mA*mG*mG*mG*mG (mU*mA*mA*mA*mA*dT*dA*dA*dG*dG*dG*dG*dA*dA*dT*mA*mG*mG*mG*mG) [[CDKN2B-AS1]80] | 110.58 |  | 
28 | mA*mG*mG*mC*mC*T*C*C*A*G*T*G*T*C*T*mU*mC*mU*mC*mC (mA*mG*mG*mC*mC*dT*dC*dC*dA*dG*dT*dG*dT*dC*dT*mU*mC*mU*mC*mC; antisense) [[CDKN2B-AS1]2218] | 62.85 |  | 
29 | mC*mA*mU*mC*mC*C*T*T*C*T*G*C*T*G*C*mC*mA*mA*mG*mC (mC*mA*mU*mC*mC*dC*dT*dT*dC*dT*dG*dC*dT*dG*dC*mC*mA*mA*mG*mC; antisense) [[LINC-PINT]98] | 70.60 |  | 
30 | mA*mG*mG*mA*mU*T*A*A*A*A*C*A*G*A*T*mU*mA*mA*mU*mA (mA*mG*mG*mA*mU*dT*dA*dA*dA*dA*dC*dA*dG*dA*dT*mU*mA*mA*mU*mA) [[CDKN2B-AS1] 1775] | 88.54 |  | 
31 | mG*mG*mU*mC*mC*C*A*T*C*C*C*T*T*C*T*mG*mC*mU*mG*mC (GGUCCCATCCCTTCTGCUGC; sugars from the 5' end m5 d10 m5, all phosphorothioate, methylation of C not given here) [[LINC-PINT]103] | 45.23 |  | significantly inhibiting ISD70-driven IP-10 production
32 | mU*mC*mU*mG*mG*T*C*C*C*A*T*C*C*C*T*mU*mC*mU*mG*mC (UCUGGTCCCATCCCTUCUGC; antisense; sugars from the 5' end m5 d10 m5, all phosphorothioate, methylation of C not given here) [[LINC-PINT]106] | 48.75 |  | 
33 | mU*mC*mC*mC*mA*A*C*T*C*T*T*C*T*A*A*mC*mU*mC*mG*mU (mU*mC*mC*mC*mA*dA*dC*dT*dC*dT*dT*dC*dT*dA*dA*mC*mU*mC*mG*mU; antisense) [[LINC-PINT]1284 KL] | 99.64 |  | 
34 | TCCGGCCTCGGAAGCTCTCT (antisense; 2'-MOE modified, pattern not given here) [MB21D1-168 MOE] |  | 0.250 | 
35 | TGGGTTACGGCTCAGTATGG (antisense; 2'-MOE modified, pattern not given here) [CAMSAP1-4295 MOE] |  | 0.432 | 
36 | mU*mG*mU*mG*mA*A*A*A*G*A*T*T*A*T*C*mU*mU*mC*mU*mU (UGUGAAAAGATTATCUUCUU; sugars from the 5' end m5 d10 m5, all phosphorothioate, methylation of C not given here) [[CDKN2B-AS1]2137] | 40.72 |  | 

From patent US20240384268A1, “Oligonucleotides” (Hudson Institute of Medical Research, priority 2021, published 2024)
